Where two headings read alike, the source gives them in different places.
Key:
[1] = target: N-type calcium channel (α1B (Cav2.2), β3 and α2δ subunits) (Homo sapiens, UniProt Q00975); test: Functional Assay: Antagonism of N-Type Calcium Channel (FDSS calcium mobilization, KCl depolarization); type: cell-based; details: for IC50: HEK cell line, 50 mM KCl depolarization, six-point concentration-response, read-out: FDSS IC50
In short: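 HEK cells stably co-expressing α1B (Cav2.2), β3 and α2δ were loaded with calcium dye, then given compound with fluorescence recorded for 5 min before 50 mM KCl depolarisation and 3 min more reading. IC50 came from six-point curves of maximal fluorescence, normalised to KCl maximum and buffer minimum.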

[2] = target: N-type calcium channel (Homo sapiens, UniProt Q00975); test: Automated Electrophysiology Assay (QPatch-HT whole-cell patch clamp; low- and high-frequency stimulation); type: cell-based
Chain of N-type calcium channel (Q00975 whole entry): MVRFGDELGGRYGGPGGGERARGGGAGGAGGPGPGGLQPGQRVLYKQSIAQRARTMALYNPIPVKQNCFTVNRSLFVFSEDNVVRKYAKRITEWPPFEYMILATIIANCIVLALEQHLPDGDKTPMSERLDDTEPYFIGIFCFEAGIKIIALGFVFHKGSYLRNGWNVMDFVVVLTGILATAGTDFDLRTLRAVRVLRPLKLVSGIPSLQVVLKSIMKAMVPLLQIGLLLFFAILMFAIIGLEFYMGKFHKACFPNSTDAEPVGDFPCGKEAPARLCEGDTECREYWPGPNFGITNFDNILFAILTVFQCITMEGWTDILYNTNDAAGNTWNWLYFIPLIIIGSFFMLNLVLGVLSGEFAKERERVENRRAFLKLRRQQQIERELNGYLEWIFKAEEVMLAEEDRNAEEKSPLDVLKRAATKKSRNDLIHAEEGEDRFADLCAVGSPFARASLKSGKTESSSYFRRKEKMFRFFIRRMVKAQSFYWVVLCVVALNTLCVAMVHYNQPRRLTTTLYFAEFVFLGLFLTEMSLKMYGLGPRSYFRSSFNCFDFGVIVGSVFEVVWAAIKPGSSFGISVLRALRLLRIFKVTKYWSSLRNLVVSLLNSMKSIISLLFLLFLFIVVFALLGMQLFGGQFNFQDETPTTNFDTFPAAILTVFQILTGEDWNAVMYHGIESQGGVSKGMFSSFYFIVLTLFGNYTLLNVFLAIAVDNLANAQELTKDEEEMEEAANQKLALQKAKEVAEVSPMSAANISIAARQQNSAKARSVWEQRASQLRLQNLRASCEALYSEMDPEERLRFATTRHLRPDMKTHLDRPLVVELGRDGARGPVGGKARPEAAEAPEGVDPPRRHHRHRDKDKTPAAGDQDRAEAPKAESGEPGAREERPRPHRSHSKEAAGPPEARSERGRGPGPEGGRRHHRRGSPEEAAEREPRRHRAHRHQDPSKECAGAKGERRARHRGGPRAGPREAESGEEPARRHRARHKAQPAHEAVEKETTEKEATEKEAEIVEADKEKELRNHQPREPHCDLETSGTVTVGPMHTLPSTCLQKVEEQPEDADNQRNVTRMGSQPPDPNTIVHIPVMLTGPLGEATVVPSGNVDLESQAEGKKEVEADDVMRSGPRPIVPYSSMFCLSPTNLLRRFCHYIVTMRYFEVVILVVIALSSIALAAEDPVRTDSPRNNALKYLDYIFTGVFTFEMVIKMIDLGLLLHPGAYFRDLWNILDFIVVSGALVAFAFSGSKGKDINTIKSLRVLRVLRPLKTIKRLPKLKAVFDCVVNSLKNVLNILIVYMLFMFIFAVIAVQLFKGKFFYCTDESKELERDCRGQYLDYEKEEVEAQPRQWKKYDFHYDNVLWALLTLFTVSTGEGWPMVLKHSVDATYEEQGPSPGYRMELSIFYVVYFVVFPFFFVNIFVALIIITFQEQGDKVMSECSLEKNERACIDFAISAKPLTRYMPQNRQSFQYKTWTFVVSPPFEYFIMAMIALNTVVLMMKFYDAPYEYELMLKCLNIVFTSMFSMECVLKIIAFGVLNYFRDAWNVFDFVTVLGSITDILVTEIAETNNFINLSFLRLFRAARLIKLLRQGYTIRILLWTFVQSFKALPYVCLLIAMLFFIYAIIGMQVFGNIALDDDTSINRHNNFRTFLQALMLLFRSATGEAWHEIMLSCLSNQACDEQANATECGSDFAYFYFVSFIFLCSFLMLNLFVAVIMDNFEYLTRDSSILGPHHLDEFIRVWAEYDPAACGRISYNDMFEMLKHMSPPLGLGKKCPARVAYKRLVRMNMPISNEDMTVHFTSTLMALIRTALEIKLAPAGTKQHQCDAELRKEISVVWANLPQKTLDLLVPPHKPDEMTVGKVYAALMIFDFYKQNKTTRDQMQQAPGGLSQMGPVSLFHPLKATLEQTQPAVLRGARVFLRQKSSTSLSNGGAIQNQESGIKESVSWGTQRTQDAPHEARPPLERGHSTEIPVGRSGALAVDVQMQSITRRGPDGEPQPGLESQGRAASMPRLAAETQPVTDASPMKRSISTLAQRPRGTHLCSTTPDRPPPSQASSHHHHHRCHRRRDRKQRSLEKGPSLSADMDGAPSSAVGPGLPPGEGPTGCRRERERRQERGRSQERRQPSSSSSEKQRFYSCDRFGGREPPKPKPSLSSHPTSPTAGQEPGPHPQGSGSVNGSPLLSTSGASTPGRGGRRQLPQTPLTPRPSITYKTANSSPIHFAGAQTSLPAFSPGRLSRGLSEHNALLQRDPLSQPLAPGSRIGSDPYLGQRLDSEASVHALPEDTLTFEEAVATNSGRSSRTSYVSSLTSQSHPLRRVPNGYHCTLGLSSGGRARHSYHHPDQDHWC
Chain of N-type calcium channel (P54284 whole entry partner): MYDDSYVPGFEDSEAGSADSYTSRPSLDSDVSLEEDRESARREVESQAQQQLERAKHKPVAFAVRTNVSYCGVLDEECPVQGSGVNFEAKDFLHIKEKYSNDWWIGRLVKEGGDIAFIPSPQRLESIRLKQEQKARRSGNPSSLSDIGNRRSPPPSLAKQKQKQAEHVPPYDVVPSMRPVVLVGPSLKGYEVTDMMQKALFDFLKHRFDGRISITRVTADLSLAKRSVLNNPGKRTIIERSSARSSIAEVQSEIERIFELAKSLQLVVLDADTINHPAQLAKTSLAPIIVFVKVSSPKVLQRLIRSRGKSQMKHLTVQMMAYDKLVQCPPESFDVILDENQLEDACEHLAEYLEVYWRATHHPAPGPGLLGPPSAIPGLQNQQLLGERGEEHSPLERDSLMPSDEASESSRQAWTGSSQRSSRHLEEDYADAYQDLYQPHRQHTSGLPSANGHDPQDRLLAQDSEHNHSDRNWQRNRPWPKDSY
Chain of N-type calcium channel (P54289 25-946 partner limits assumed): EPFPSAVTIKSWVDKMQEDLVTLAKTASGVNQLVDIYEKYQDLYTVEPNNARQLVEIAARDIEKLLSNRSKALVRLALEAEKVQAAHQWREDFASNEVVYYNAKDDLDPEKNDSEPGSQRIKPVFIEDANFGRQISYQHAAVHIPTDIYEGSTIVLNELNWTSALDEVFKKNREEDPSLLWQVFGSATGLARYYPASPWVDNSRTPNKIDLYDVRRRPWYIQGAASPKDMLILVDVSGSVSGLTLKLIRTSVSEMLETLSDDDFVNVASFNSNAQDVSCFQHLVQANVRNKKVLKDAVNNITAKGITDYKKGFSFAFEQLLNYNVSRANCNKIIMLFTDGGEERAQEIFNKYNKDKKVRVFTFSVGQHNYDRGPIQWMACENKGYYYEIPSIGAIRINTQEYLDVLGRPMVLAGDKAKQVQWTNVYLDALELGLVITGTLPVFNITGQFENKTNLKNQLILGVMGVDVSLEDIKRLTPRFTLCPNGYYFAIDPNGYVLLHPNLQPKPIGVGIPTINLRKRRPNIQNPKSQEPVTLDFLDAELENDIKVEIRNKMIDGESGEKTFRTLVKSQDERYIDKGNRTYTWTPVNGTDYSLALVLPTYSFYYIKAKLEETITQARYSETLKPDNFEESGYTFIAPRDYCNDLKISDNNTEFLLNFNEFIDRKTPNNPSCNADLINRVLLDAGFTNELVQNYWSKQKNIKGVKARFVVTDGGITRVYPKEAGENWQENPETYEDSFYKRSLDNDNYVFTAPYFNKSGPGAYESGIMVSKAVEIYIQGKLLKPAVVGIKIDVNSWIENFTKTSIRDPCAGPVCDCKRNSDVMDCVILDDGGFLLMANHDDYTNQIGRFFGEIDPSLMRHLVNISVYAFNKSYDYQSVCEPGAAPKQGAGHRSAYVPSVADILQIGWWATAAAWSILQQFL
Chain of N-type calcium channel (P54289 947-1103 partner limits assumed): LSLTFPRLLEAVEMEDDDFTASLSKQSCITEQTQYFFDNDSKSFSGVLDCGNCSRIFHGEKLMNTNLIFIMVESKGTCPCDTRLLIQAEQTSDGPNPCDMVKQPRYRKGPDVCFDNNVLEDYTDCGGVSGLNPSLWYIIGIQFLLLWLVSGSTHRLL

[3] = high-frequency stimulation (15th pulse), read-out: QPatch at High Frequency % Inhibition
[4] = low frequency, read-out: QPatch at Low Frequency % Inhibition

Chain of N-type calcium channel (α1B (Cav2.2), β3 and α2δ subunits) (Q00975 whole entry): as the sequence (Q00975 whole entry) above
Chain of N-type calcium channel (α1B (Cav2.2), β3 and α2δ subunits) (P54284 whole entry partner): as the sequence (P54284 whole entry partner) above
Chain of N-type calcium channel (α1B (Cav2.2), β3 and α2δ subunits) (P54289 25-946 partner limits assumed): as the sequence (P54289 25-946 partner limits assumed) above
Chain of N-type calcium channel (α1B (Cav2.2), β3 and α2δ subunits) (P54289 947-1103 partner limits assumed): as the sequence (P54289 947-1103 partner limits assumed) above

Compound | IC50 [1] | inhibition at 0.1 µM [2, 3] | inhibition at 0.1 µM [2, 4] | inhibition at 0.25 µM [2, 3] | inhibition at 1 µM [2, 3] | inhibition at 5 µM [2, 3] | inhibition at 0.25 µM [2, 4] | inhibition at 1 µM [2, 4] | inhibition at 5 µM [2, 4] | inhibition at 0.33 µM ([1]; 0.33 μM) | inhibition at 0.33 µM [1]
CCOc1ccccc1-n1nc2c(c1-c1ccc(Cl)cc1)CC(N1C(=O)CCC1=O)C2 (centres unmarked) [Compound 38, 1-[3-(4-chlorophenyl)-2-(2-ethoxyphenyl)-2,4,5,6-tetrahydrocyclopenta[c]pyrazol-5-yl]pyrrolidine-2,5-dione] | 7.5 nM | 53% | 47% |  |  |  |  |  |  |  | 
COc1ccccc1-n1nc2c(c1-c1ccc(Cl)cc1)CC1(C2)O[C@H]2CCCC[C@H]2O1 (stereo partly drawn) [Compound 112, (3aR,7aS)-3′-(4-chlorophenyl)-2′-(2-methoxyphenyl)-2′,3a,4,5,6,6′,7,7a-octahydro-4′H-spiro[1,3-benzodioxole-2,5′-cyclopenta[c]pyrazole]] |  | 26% | 7% |  |  |  |  |  |  |  | 90%
COc1ccccc1-n1nc2c(c1-c1ccc(Cl)cc1)CC(NS(=O)(=O)C(C)C)C2 (centres unmarked) [Compound 33, N-[3-(4-chlorophenyl)-2-(2-methoxyphenyl)-2,4,5,6-tetrahydrocyclopenta[c]pyrazol-5-yl]propane-2-sulfonamide] | 18 nM | 42% | 35% |  |  |  |  |  |  |  | 
CCC(CC)C(=O)O[C@@H]1Cc2nn(-c3ccccc3OC)c(-c3ccc(Cl)cc3)c2C1 [Compound 70, (5S)-3-(4-chlorophenyl)-2-(2-methoxyphenyl)-2,4,5,6-tetrahydrocyclopenta[c]pyrazol-5-yl 2-ethylbutanoate] | 15 nM | 19% |  |  |  |  |  |  |  | 96% | 
COc1ccccc1-n1nc2c(c1-c1ccc(Cl)cc1)CC(CNS(C)(=O)=O)C2 (centres unmarked) [Compound 8, N-{[3-(4-chlorophenyl)-2-(2-methoxyphenyl)-2,4,5,6-tetrahydrocyclopenta[c]pyrazol-5-yl]methyl}methanesulfonamide] | 55 nM |  |  | -12% | 57% |  | -9% | 62% |  | 96% | 
COc1ccccc1-n1nc2c(c1-c1ccc(Cl)cc1)C[C@H](O[Si](C)(C)C)C2 [Compound 69, (5S)-3-(4-chlorophenyl)-2-(2-methoxyphenyl)-5-[(trimethylsilyl)oxy]-2,4,5,6-tetrahydrocyclopenta[c]pyrazole] | 9.6 nM | 26% | 15% |  |  |  |  |  |  | 93% | 
COc1ccc(-c2c3c(nn2-c2ccccc2OC)C[C@H](N(C)S(=O)(=O)N(C)C)C3)cn1 [Compound 56, N-[(5R)-2-(2-Methoxyphenyl)-3-(6-methoxypyridin-3-yl)-2,4,5,6-tetrahydrocyclopenta[c]pyrazol-5-yl]-N,N′,N′-trimethylsulfamide] | 13 nM | 2% | -1% |  | 47% |  |  | 32% |  | 93% | 
COc1ccccc1-n1nc2c(c1-c1ccc(Cl)cc1)CC(N1CCOCC1)C2 (centres unmarked) [Compound 68, 3-(4-chlorophenyl)-2-(2-methoxyphenyl)-5-morpholin-4-yl-2,4,5,6-tetrahydrocyclopenta[c]pyrazole] | 16 nM | 31% | 33% |  |  |  |  |  |  | 95% | 

The remaining molecules from weak to strong by IC50 [1], led by results:

IC50 [1] | inhibition at 0.1 µM [2, 3] | inhibition at 0.1 µM [2, 4] | inhibition at 0.25 µM [2, 3] | inhibition at 1 µM [2, 3] | inhibition at 5 µM [2, 3] | inhibition at 0.25 µM [2, 4] | inhibition at 1 µM [2, 4] | inhibition at 5 µM [2, 4] | inhibition at 0.33 µM ([1]; 0.33 μM) | Compound | inhibition at 0.33 µM [1]
75 nM | 11% | -7% |  |  |  |  |  |  | 82% | COc1ccccc1-n1nc2c(c1-c1ccc(Cl)cc1)C[C@H](OC(=O)C1CCCC1)C2 [Compound 79, (5S)-3-(4-chlorophenyl)-2-(2-methoxyphenyl)-2,4,5,6-tetrahydrocyclopenta[c]pyrazol-5-yl cyclopentanecarboxylate] | 
50 nM |  |  |  | 57% |  |  | 39% |  | 92% | COc1ccccc1-n1nc2c(c1-c1ccc(C#N)cc1)C[C@H](n1cc(C(C)(C)C)nn1)C2 [Compound 130, 4-[(5S)-5-(4-tert-butyl-1H-1,2,3-triazol-1-yl)-2-(2-methoxyphenyl)-2,4,5,6-tetrahydrocyclopenta[c]pyrazol-3-yl]benzonitrile] | 
49 nM | 26% | 6% |  |  |  |  |  |  | 85% | COc1ccccc1-n1nc2c(c1-c1ccc(Cl)cc1)C[C@H](O[C@H]1C[C@@H]3CC[C@H]1C3)C2 [Compound 89, (5S)-5-[(1S,2S,4R)-bicyclo[2.2.1]hept-2-yloxy]-3-(4-chlorophenyl)-2-(2-methoxyphenyl)-2,4,5,6-tetrahydrocyclopenta[c]pyrazole] | 
38 nM | 29% | 13% | 47% | 72% |  | 34% | 51% |  | 81% | CCOc1ccccc1-n1nc2c(c1-c1ccc(Cl)cc1)CC(n1ccnc1)C2 (centres unmarked) [Compound 39, 3-(4-chlorophenyl)-2-(2-ethoxyphenyl)-5-(1H-imidazol-1-yl)-2,4,5,6-tetrahydrocyclopenta[c]pyrazole] | 
34 nM |  |  |  | 66% |  |  | 49% |  | 94% | CC(C)S(=O)(=O)N(C)[C@@H]1Cc2nn(-c3cccc4c3OCC4)c(-c3ccc(Cl)cc3)c2C1 [Compound 51, N-[(5S)-3-(4-chlorophenyl)-2-(2,3-dihydro-1-benzofuran-7-yl)-2,4,5,6-tetrahydrocyclopenta[c]pyrazol-5-yl]-N-methylpropane-2-sulfonamide] | 
26 nM |  |  | 57% | 76% | 88% | 35% | 69% | 93% |  | COc1ccccc1-n1nc2c(c1-c1ccc(Cl)cc1)CC(CCOC(=O)N(C)C)C2 (centres unmarked) [Compound 3, 2-[3-(4-chlorophenyl)-2-(2-methoxyphenyl)-2,4,5,6-tetrahydrocyclopenta[c]pyrazol-5-yl]ethyl dimethylcarbamate] | 
26 nM | 20% | 18% |  |  |  |  |  |  |  | COc1ccccc1-n1nc2c(c1-c1ccc(Cl)cc1)CC(NS(C)(=O)=O)C2 (centres unmarked) [Compound 32, N-[3-(4-chlorophenyl)-2-(2-methoxyphenyl)-2,4,5,6-tetrahydrocyclopenta[c]pyrazol-5-yl]methanesulfonamide] | 
14 nM | 37% | 34% |  |  |  |  |  |  |  | COc1ccccc1-n1nc2c(c1-c1ccc(Cl)cc1)CC(NS(=O)(=O)N(C)C)C2 (centres unmarked) [Compound 34, N′-[3-(4-chlorophenyl)-2-(2-methoxyphenyl)-2,4,5,6-tetrahydrocyclopenta[c]pyrazol-5-yl]-N,N-dimethylsulfamide] | 
4 nM | 68% | 60% |  |  |  |  |  |  | 94% | CCOc1ccccc1-n1nc2c(c1-c1ccc(Cl)cc1)C[C@@H](NC(=O)C(F)(F)F)C2 [Compound 45, N-[(5R)-3-(4-chlorophenyl)-2-(2-ethoxyphenyl)-2,4,5,6-tetrahydrocyclopenta[c]pyrazol-5-yl]-2,2,2-trifluoroacetamide] | 
3.7 nM | 21% | -5% |  |  |  |  |  |  | 90% | COc1ccccc1-n1nc2c(c1-c1ccc(C#N)cc1)CC1(C2)OC(C)(C)C(C)(C)O1 [Compound 111, 4-[2-(2-methoxyphenyl)-4′,4′,5′,5′-tetramethyl-2,6-dihydro-4H-spiro[cyclopenta[c]pyrazole-5,2′-[1,3]dioxolan]-3-yl]benzonitrile] | 

Reference: patent US8853418B2, “Cyclopentylpyrazoles as N-type calcium channel blockers” (Janssen Pharmaceutica NV, priority 2012, dated 2014)
